Here are results for nine molecules from ChEMBL document CHEMBL3046011, “QSAR analysis of 2-sulfonylphenyl-3-phenyl-indole derivatives as novel anti-inflammatory compounds” (Med Chem Res, 2009).

The target in the assay is T1, Prostaglandin G/H synthase 2 (Mus musculus, UniProt Q05769).
T1 sequence (Q05769 whole entry): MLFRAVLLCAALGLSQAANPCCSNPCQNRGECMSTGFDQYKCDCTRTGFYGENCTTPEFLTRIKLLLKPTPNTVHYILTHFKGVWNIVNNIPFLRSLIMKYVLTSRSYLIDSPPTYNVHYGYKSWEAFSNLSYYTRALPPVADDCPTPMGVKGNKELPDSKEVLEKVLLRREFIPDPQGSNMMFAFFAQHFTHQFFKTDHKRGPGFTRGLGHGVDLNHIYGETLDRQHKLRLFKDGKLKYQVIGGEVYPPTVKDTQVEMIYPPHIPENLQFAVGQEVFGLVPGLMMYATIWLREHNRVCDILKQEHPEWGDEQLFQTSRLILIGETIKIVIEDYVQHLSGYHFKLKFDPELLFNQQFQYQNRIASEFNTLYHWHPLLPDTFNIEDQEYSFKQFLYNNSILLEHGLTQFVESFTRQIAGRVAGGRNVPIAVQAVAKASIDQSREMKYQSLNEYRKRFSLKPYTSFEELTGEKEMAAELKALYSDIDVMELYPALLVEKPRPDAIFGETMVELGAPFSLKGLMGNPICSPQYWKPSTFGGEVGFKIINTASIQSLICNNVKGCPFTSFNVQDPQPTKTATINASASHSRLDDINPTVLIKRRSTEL
Kind of assay: Inhibition of COX2 in Mus musculus (mouse) peritoneal macrophage.
Consider `NS(=O)(=O)c1ccc(-c2[nH]c3ccccc3c2-c2ccccc2)cc1`, for which the IC50 is 0.0891 nM. That is a picomolar value.
The same measure for `Cc1ccc(-c2c(-c3ccc(S(C)(=O)=O)cc3)[nH]c3ccccc23)cc1C`: 0.17 nM.
`Cc1ccc2[nH]c(-c3ccc(S(N)(=O)=O)cc3)c(-c3ccccc3)c2c1` had an IC50 of 0.02 nM. This IC50 is about 8.5-fold lower than that of the molecule before.
The same measure for `NS(=O)(=O)c1ccc(-c2[nH]c3ccc(Cl)cc3c2-c2ccccc2)cc1`: 0.141 nM.
In turn, `CS(=O)(=O)c1ccc(-c2[nH]c3ccccc3c2-c2ccccc2)cc1` gave an IC50 of 0.603 nM. This IC50 lies about 4.3-fold higher than the previous one.
The same measure for `CC(=O)NS(=O)(=O)c1ccc(-c2[nH]c3ccccc3c2-c2ccccc2)cc1`: 0.178 nM; for `Cc1ccc2[nH]c(-c3ccc(S(C)(=O)=O)cc3)c(-c3ccccc3)c2c1`: 0.282 nM; for `NS(=O)(=O)c1ccc(-c2[nH]c3ccccc3c2-c2ccc(Cl)cc2)cc1`: 33.1 nM.
The same measure for `COc1ccc(-c2c(-c3ccc(S(C)(=O)=O)cc3)[nH]c3ccccc23)cc1`: 0.02 nM.

By IC50 is commonly meant the concentration that inhibits the measured activity by half.
